Biological target: T1, Human recombinant Vanin-1 (VNN1) (Homo sapiens, UniProt O95497)
T1 construct: purchased Sino Biological Inc. 11662-H08H
T1 sequence (O95497 22-491): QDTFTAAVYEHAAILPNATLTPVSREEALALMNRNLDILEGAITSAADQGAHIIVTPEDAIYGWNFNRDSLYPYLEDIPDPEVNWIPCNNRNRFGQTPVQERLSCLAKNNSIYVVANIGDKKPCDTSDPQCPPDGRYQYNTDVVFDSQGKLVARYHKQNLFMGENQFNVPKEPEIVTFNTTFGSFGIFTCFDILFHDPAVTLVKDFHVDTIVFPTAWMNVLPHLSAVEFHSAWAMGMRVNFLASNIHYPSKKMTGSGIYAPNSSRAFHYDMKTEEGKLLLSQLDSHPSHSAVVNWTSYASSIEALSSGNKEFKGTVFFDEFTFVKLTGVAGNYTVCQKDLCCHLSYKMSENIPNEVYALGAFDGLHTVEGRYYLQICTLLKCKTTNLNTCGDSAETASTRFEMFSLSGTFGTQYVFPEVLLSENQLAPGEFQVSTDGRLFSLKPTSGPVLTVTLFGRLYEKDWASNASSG
Experiment: Vanin-1 enzymatic assay (fluorescence intensity, Pantothenate-AMC substrate)
Assay type: biochemical
Conditions: purified recombinant human Vanin-1 0.5 nM; 30 min preincubation at 30° C.; Pantothenate-AMC 30 μM, 60 min
Experimental: Human recombinant Vanin-1 (VNN1) was purchased from Sino Biological Inc. (Catalog Number: 11662-H08H).
Measurement of VNN1 inhibition is performed in 384-well format based on fluorescence intensity assay. Purified recombinant human Vanin-1 (0.5 nM) and threefold serial diluted compounds in 3% DMSO (range of concentrations from 30 μM to 1.524 nM) or controls (3.0% DMSO) are incubated for 30 minutes at 30° C. with gentle agitation in assay buffer containing 100 mM potassium Phosphate Buffer (KPi), pH 7.5, 0.001% Bovine Serum Albumin (BSA), 0.5 mM dithiothreitol (DTT) and 0.0025% Brij-35. The reaction is initiated by the addition of the fluorogenic substrate, Pantothenate-AMC, at a concentration of 30 μM. After 60 minutes of incubation at 30° C. with gentle agitation, fluorescence intensity is measured at λex=350 nm and λem=450 nm with a fluorescence reader (BMG PHERAstar reader or equivalent).

SMILES	IC50 [nM]
CN(Cc1ccccc1)C(=O)C(=O)CCNC(=O)[C@H](O)C(C)(C)CO [Example 27]	9730
CCC(=O)CCNC(=O)[C@H](O)C(C)(C)CO [Example 2, (R)-2,4-Dihydroxy-3,3-dimethyl-N-(3-oxo-pentyl)-butyramide]	20500
CC(C)(CO)[C@@H](O)C(=O)NCCC(=O)C(=O)NC1CCCCC1 [Example 18, (R)—N-(3-Cyclohexylcarbamoyl-3-oxo-propyl)-2,4-dihydroxy-3,3-dimethyl butyramide]	3350
CC(=O)CCNC(=O)[C@H](O)C(C)(C)CO [Example 1, (R)-2,4-Dihydroxy-3,3-dimethyl-N-(3-oxo-butyl)-butyramide]	5370
CC(C)(CO)[C@@H](O)C(=O)NCCC(=O)C(=O)NCC1CCN(S(=O)(=O)c2cccc(F)c2)CC1 [Example 51, (R)—N-(3-{[1-(3-Fluoro-benzenesulfonyl)-piperidin-4-ylmethyl]-carbamoyl}-3-oxo-propyl)-2,4-dihydroxy-3,3-dimethyl-butyramide]	20
CC(C)(CO)[C@@H](O)C(=O)NCCC(=O)C(=O)NCc1ccc(-c2ccc(S(C)(=O)=O)cc2)cc1 [Example 53, (R)-2,4-Dihydroxy-N-{3-[(4′-methanesulfonyl-biphenyl-4-ylmethyl)-carbamoyl]-3-oxo-propyl}-3,3-dimethyl-butyramide]	10
CC(C)(CO)[C@@H](O)C(=O)NCCC(=O)C(=O)NCC1CCN(S(=O)(=O)c2ccc(-c3ccccc3)cc2)CC1 [Example 38, (R)—N-(3-{[1-(Biphenyl-4-sulfonyl)-piperidin-4-ylmethyl]-carbamoyl}-3-oxo-propyl)-2,4-dihydroxy-3,3-dimethyl-butyramide]	< 10
CC(C)(CO)[C@@H](O)C(=O)NCCC(=O)C(=O)NCc1cccc(S(=O)(=O)N2CCCCC2)c1 [Example 36, (R)-2,4-Dihydroxy-3,3-dimethyl-N-{3-oxo-3-[3-(piperidine-1-sulfonyl)-benzylcarbamoyl}-propyl)-butyramide]	170
CC(C)(CO)[C@@H](O)C(=O)NCCC(=O)C(=O)NCCc1ccccc1 [Example 12, (R)-2,4-Dihydroxy-3,3-dimethyl-N-(3-oxo-3-phenethylcarbamoyl-propyl)-butyramide]	90
CC(C)(CO)[C@@H](O)C(=O)NCCC(=O)C(=O)NC(c1ccccc1)c1ccccc1 [Example 21, (R)—N-[3-(Benzhythyl-carbamoyl)-3-oxo-propyl]-2,4-dihydroxy-3,3-dimethyl-butyramide]	11500
CC(C)(CO)[C@@H](O)C(=O)NCCC(=O)C(=O)NCc1ccc(C(=O)O)cc1 [Example 54, 4-{[4-((R)-2,4-Dihydroxy-3,3-dimethyl-butrylamino)-2-oxo-butyrylamino]-methyl}-benzoic acid]	90
CC(C)(CO)[C@@H](O)C(=O)NCCC(=O)C(=O)Nc1ccccc1 [Example 16, (R)-2,4-Dihydroxy-3,3-dimethyl-N-(3-oxo-3-phenylcarbamoyl-propyl)-butyramide]	8320
CC(C)(CO)[C@@H](O)C(=O)NCCC(=O)C(=O)NCC1CCN(S(=O)(=O)c2ccccc2)CC1 [Example 34, (R)—N-(3-[(1-Benzenesulfonyl-piperidin-4-ylmethyl)-carbamoyl]-3-oxo-propyl)-2,4-dihydroxy-3,3-dimethyl-butyramide]	20
CC(C)(CO)[C@@H](O)C(=O)NCCN(CCOc1ccc(Br)cc1)C(=O)CCl [Example 66]	2870
COC(=O)c1ccc(OCCN(CCNC(=O)[C@H](O)C(C)(C)CO)C(=O)CCl)cc1 [Example 65, 4-(2-{(2-Chloro-acetyl)-[2-((R)-2,4-dihydroxy-3,3-dimethyl-butyrylamino)-ethyl]-amino}-ethoxy)-benzoic acid methyl ester]	3990
CC(C)(CO)[C@@H](O)C(=O)NCCC(=O)C(=O)NCCCN1CCOCC1=O [Example 40, (R)-2,4-Dihydroxy-3,3-dimethyl-N-{3-oxo-3-[3-(3-oxo-morpholin-4-yl)-propylcarbamoyl}-propyl)butyramide]	400
CC(C)(CO)[C@@H](O)C(=O)NCCC(=O)C(=O)NCC1CCN(S(C)(=O)=O)CC1 [Example 47, (R)-2,4-Dihydroxy-N-(3-[(1-methanesulfonyl-piperidin-4-ylmethyl)-carbamoyl]-3-oxo-propyl)-3,3-dimethyl-butyramide]	20
CC(C)(CO)[C@@H](O)C(=O)NCCC(=O)C(=O)NCCc1ccc(S(C)(=O)=O)cc1 [Example 30, (R)-2,4-Dihydroxy-N-{3-[2-(4-methanesulfonyl-phenyl)-ethylcarbamoyl]-3-oxo-propyl}-3,3-dimethyl-butyramide]	30
CC(C)(CO)[C@@H](O)C(=O)NCCC(=O)C(=O)NCCCc1ccc(S(=O)(=O)N2CCCCC2)cc1 [Example 35, (R)-2,4-Dihydroxy-3,3-dimethyl-N-(3-oxo-3-{3-[4-(piperidine-1-sulfonyl)-phenyl]-propylcarbamoyl}-propyl)-butyramide]	70
CC(C)(CO)[C@@H](O)C(=O)NCCC(=O)C(=O)NCc1ccc(Oc2ccncc2)cc1 [Example 37, (R)-2,4-Dihydroxy-3,3-dimethyl-N-{3-oxo-3-[4-(pyridin-4-yloxy)-benzylcarbamoyl]-propyl}-butyramide]	10
CC(C)(CO)[C@H](O)C(=O)NCCC(=O)C(=O)NCc1ccccc1 [Example 13, (S)—N-(3-Benzylcarbamoyl-3-oxo-propyl)-2,4-dihydroxy-3,3-dimethyl-butyramide]	460
COC(=O)CNC(=O)C(=O)CCNC(=O)[C@H](O)C(C)(C)CO [Example 25, [4-((R)-2,4-Dihydroxy-3,3-dimethyl-butyrylamino)-2-oxo-butyrylamino]-acetic acid methyl ester]	2320
CC(C)(CO)[C@@H](O)C(=O)NCCC(=O)C(=O)NCC1CCN(S(=O)(=O)c2ccc(N3CCCC3=O)cc2)CC1 [Example 46, (R)-2,4-Dihydroxy-3,3-dimethyl-N-[3-oxo-3-({1-[4-(2-oxo-pyrrolidin-1-yl)-benzenesulfonyl]-piperidin-4-ylmethyl}-carbamoyl)-propyl]-butyramide]	< 10
CC(C)(CO)[C@@H](O)C(=O)NCCN(CCOc1ccc(S(C)(=O)=O)cc1)C(=O)CCl [Example 64, (R)—N-(2-{(2-Chloro-acetyl)-[2-(4-methanesulfonyl-phenoxy)-ethyl]-amino}-ethyl)-2,4-dihydroxy-3,3-dimethyl-butyramide]	3440
CC(C)(CO)[C@@H](O)C(=O)NCCC(=O)C(=O)NCC1CCN(S(=O)(=O)Cc2cccc(F)c2)CC1 [Example 52, (R)—N-(3-{[1-(3-Fluoro-phenylmethanesulfonyl)-piperidin-4-ylmethyl]-carbamoyl}-3-oxo-propyl)-2,4-dihydroxy-3,3-dimethyl-butyramide]	50
CC(C)(CO)[C@@H](O)C(=O)NCCC(=O)C(=O)NCc1ccc(OCCN2CCOCC2)cc1 [Example 44, (R)-2,4-Dihydroxy-3,3-dimethyl-N-(3-[4-(2-morpholin-4-yl-ethoxy)-benzylcarbamoyl]-3-oxo-propyl)-butyramide]	50
CC(C)(CO)[C@@H](O)C(=O)NCCC(=O)C(=O)N1CCC(Nc2cccc(S(=O)(=O)C(F)(F)F)c2)CC1 [Example 43, (R)—N-{3,4-Dioxo-4-[4-(3-trifluoromethanesulfonyl-phenylamino)-piperidin-1-yl]-butyl}-2,4-dihydroxy-3,3-dimethyl-butyramide]	12600

From patent US9585891B2 (MERCK PATENT GMBH, priority 2012, dated 2017)
